Test system: endometriosis lesions
Experiment: Ex vivo clinical evaluation of endometriosis lesions (intraperitoneal uterine horn implants) in syngenic mice
Details: estradiol at D-1, implants at D0, nanosuspension (50 mg/mL) i.v. 100 mg/kg/BW every 2 days from D7 to D21, sacrificed at D23, versus control group (Vehicle)
Method: FIG. 2: Ex vivo clinical evaluation (implant volume (mm^3) and weight (g)) in syngenic mice.
Example 1: Echographic and Ex Vivo Evaluation of Endometriosis Lesions in Syngenic Mice Treated with Compound 38
More particularly, 20 syngenic mices were engraved estradiol at D-1. Intraperitoneal Uterine Horsn implant have been implanted in each mouse at DO. A nanosuspension of compound 38 (50 mg/mL) has been intravenously administered in 10 mice (treated group) at a 100 mg/kg/BW dose from D7 to D21 every 2 days.
Mices have been sacrified at D23 and implants have been removed for ex vivo clinical evaluation.

COc1ccc(C#N)cc1/C=C(\C#N)c1c[nH]c2ccc(Br)cc12 [Compound 38, (Z)-3-(2-(5-bromo-1H-indol-3-yl)-2-cyanovinyl)-4-methoxybenzonitrile]
implant volume: lower than those of the control group
implant weight: lower than those of the control group

Source: US10624876B2, “Derivatives of indole for the treatment of endometriosis” (BIOKINESIS, priority 2016, dated 2020)
